Assay: molar heat capacity at constant pressure
Conditions: 101.33 kPa, Crystal

O=C(O)c1cccc(C(=O)O)n1 [pyridine-2,6-dicarboxylic acid]
Conditions | molar heat capacity at constant pressure [J/K/mol]
84.05 K | 56.42
86.4 K | 56.44
88.71 K | 56.5
90.97 K | 56.59
93.19 K | 56.71
95.37 K | 56.85
97.51 K | 57.03
99.63 K | 57.23
101.72 K | 57.46
103.77 K | 57.71
105.81 K | 57.98
107.81 K | 58.27
109.8 K | 58.59
111.76 K | 58.92
113.7 K | 59.27
115.63 K | 59.65
117.53 K | 60.03
119.42 K | 60.44
121.29 K | 60.86
123.15 K | 61.3
124.99 K | 61.76
126.82 K | 62.23
128.63 K | 62.72
130.43 K | 63.22
132.22 K | 63.73
133.99 K | 64.25
135.76 K | 64.8
137.51 K | 65.35
139.25 K | 65.91
140.98 K | 66.49
142.69 K | 67.08
144.4 K | 67.68
146.1 K | 68.29
147.79 K | 68.91
149.46 K | 69.55
151.13 K | 70.19
152.79 K | 70.84
154.44 K | 71.5
156.08 K | 72.18
157.72 K | 72.86
159.35 K | 73.55
160.97 K | 74.25
162.58 K | 74.96
164.18 K | 75.68
165.77 K | 76.4
167.35 K | 77.13
168.92 K | 77.86
170.49 K | 78.61
172.04 K | 79.36
173.59 K | 80.11
175.13 K | 80.88
176.66 K | 81.65
178.19 K | 82.42
179.71 K | 83.2
181.22 K | 83.99
182.72 K | 84.78
184.23 K | 85.59
185.73 K | 86.39
187.22 K | 87.21
188.71 K | 88.03
190.19 K | 88.85
191.66 K | 89.68
193.13 K | 90.52
194.59 K | 91.35
196.06 K | 92.2
197.5 K | 93.04
200.08 K | 94.57
204.09 K | 96.99
207.23 K | 98.92
209.37 K | 100.26
211.49 K | 101.59
213.62 K | 102.95
217.8 K | 105.66
219.85 K | 107.01
221.9 K | 108.37

Source: the NIST ThermoML archive (doi:10.1016/j.jct.2006.03.007)
